According to patent EP4778922A1, “BICYCLIC COMPOUND, AND PREPARATION METHOD THEREFOR AND PHARMACEUTICAL USE THEREOF” (Shanghai Jeyou Pharmaceutical Co., Ltd., priority 2023, dated 2025):
Read-outs that look alike come from different tables or passages of the source.

Assays:
[1] = system: 22RV1 cells; assay: Cell proliferation inhibition assay in 22RV1 cells (CellTiter-Glo, 7 days); assay type: cell-based, human
How it was run: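 22RV1 cells received compound alone; LNCaP cells were stimulated with 0.2 nM DHT added 1 h after compound. Seeding was 3000 cells/well.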

[2] = biological target: T1, CYP2C19 (Homo sapiens, UniProt P33261); assay: CYP inhibition assay in human liver microsomes; assay type: in vitro ADME; conditions: human liver microsomes, NADPH; read-out: CYPs 2C19 (IC50)
T1 construct: co-incubated with human liver microsomes; from tissue; host or cells: human liver microsomes
T1 sequence (P33261 whole entry): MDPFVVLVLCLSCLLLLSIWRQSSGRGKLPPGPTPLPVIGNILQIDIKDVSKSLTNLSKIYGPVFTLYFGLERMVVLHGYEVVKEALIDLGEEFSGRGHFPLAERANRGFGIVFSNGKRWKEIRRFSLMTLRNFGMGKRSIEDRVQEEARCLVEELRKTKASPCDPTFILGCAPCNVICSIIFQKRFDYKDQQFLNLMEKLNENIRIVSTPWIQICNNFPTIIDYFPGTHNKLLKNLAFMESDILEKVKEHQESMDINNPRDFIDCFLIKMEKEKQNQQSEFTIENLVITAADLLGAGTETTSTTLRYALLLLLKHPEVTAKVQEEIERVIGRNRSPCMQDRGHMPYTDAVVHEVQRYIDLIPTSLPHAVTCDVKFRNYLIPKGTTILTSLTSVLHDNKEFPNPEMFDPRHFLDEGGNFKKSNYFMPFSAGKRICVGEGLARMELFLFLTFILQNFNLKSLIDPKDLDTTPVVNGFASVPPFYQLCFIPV
Protocol: (§1) Test Example 3: CYP Inhibition Assay
(§2) An in vitro assay system was used to evaluate the effects of the compounds on the activities of several human liver microsomal cytochrome P450 (CYP) isozymes (CYP1A2, CYP2C9, CYP2D6, CYP3A4 (testosterone/midazolam), CYP2C19, and CYP2C8). Specific probe substrates for CYP450 isozymes were co-incubated with human liver microsomes and the compound at various concentrations (0, 0.0300, 0.100, 0.300, 1.00, 3.00, 10.0 µM). The reaction was initiated by adding the coenzyme NADPH. After the reaction was completed, the samples were processed, and the metabolites generated from the probe substrates were detected by liquid chromatography-tandem mass spectrometry (LC-MS/MS). Based on the resulting dose-response curves, the IC50 values of the test compounds for the probe substrate reactions catalyzed by each CYP isozyme were calculated.

[3] = biological target: T2, CYP2C9 (Homo sapiens, UniProt P11712); assay: CYP inhibition assay in human liver microsomes; assay type: in vitro ADME; conditions: human liver microsomes, NADPH; read-out: CYPs 2C9 (IC50)
T2 construct: co-incubated with human liver microsomes; from tissue; host or cells: human liver microsomes
T2 sequence (P11712 whole entry): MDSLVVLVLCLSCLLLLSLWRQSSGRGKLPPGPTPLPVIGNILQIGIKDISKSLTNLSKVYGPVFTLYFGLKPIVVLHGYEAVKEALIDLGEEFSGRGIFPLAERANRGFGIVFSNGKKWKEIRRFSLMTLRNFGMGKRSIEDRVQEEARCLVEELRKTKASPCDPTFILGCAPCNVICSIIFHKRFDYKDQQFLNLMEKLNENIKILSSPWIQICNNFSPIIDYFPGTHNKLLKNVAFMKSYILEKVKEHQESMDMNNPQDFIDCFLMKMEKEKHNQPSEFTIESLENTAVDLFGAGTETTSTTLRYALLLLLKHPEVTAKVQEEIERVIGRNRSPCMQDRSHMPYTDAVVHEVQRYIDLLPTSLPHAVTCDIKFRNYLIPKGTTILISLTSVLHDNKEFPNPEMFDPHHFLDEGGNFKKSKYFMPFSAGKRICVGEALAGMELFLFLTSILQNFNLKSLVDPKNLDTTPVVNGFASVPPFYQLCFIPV
Protocol: as §1, §2

[4] = biological target: T3, CYP3A4 (testosterone/midazolam) (Homo sapiens, UniProt P08684); assay: CYP inhibition assay in human liver microsomes; assay type: in vitro ADME
T3 construct: co-incubated with human liver microsomes; from tissue; host or cells: human liver microsomes
T3 sequence (P08684 whole entry): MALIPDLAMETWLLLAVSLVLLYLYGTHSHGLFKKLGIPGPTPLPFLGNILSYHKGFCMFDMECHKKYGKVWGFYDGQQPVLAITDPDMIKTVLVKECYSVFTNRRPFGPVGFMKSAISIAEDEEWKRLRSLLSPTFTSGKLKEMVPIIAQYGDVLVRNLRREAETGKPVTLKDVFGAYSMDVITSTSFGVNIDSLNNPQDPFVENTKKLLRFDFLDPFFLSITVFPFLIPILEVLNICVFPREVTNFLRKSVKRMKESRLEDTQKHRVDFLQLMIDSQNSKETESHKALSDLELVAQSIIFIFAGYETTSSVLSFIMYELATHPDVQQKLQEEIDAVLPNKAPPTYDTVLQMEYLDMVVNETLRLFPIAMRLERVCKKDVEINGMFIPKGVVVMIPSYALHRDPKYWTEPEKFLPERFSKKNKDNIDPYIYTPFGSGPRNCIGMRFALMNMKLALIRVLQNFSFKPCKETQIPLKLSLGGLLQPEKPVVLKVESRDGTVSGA
Protocol: as §1, §2

[5] = biological target: T4, CYP2C8 (Homo sapiens, UniProt P10632); assay: CYP inhibition assay in human liver microsomes; assay type: in vitro ADME; conditions: human liver microsomes, NADPH; read-out: CYPs 2C8 (IC50)
T4 construct: co-incubated with human liver microsomes; from tissue; host or cells: human liver microsomes
T4 sequence (P10632 1-490): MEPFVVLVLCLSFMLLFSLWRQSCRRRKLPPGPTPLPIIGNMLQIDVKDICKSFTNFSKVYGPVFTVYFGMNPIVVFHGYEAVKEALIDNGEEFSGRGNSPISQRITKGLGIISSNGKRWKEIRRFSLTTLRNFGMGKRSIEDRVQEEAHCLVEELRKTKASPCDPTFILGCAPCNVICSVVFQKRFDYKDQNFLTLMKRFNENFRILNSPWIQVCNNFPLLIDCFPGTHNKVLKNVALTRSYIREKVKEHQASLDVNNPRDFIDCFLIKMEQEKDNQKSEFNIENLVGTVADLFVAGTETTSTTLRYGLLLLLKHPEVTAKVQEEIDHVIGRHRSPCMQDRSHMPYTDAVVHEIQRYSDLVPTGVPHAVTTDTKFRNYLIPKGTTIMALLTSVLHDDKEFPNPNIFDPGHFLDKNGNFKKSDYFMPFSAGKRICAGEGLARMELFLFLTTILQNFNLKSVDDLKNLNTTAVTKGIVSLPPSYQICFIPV
Protocol: as §1, §2

[6] = Mouse pharmacokinetic test; assay type: in vivo, ICR mice
How it was run: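 Male naive ICR mice (25–30 g, n=3 per route) received a single intravenous or oral dose, with feeding resumed 4 h post-dose. Blood was centrifuged at 4°C, and plasma was stored at -80°C until analysis.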

[7] = system: LNCaP cells; assay: Cell proliferation inhibition assay in LNCaP cells (0.2 nM DHT, CellTiter-Glo, 7 days); assay type: cell-based, human
Protocol: • 1. The human prostate cancer cell lines 22RV1 and LNCaP were purchased from ATCC. […] The cell concentration was adjusted to an appropriate concentration (determined based on the results of cell density optimization experiments), and the cells were seeded into a 96-well plate. A 100 µL cell suspension was added, resulting in 3000 cells per well. […] On the second day, for 22Rv1 cells, test compounds at different concentrations were added, and the cells were incubated at 37°C in a 5% CO2 incubator for 7 days; for LNCaP cells, test compounds at different concentrations were added first, and after 1 hour of treatment, 0.2 nM DHT was added. The cells were then incubated at 37°C in a 5% CO2 incubator for 7 days. • 4. After the incubation period, a volume of CellTiter-Glo detection reagent equal to the volume of the culture medium was added to each well. The plate was shaken and mixed thoroughly for 5 minutes, then incubated at room temperature for 10 minutes. Readings were taken using a PerkinElmer EnVision microplate reader. • 5.
The IC50 curve was fitted and the IC50 value was calculated using the software GraphPad Prism 8 with the calculation formula XY-analysis/Nonlinear regression (curve fit)/Dose response-Inhibition/log (inhibitor) vs. response-Variable slope (four parameters).

[8] = probe substrate midazolam, read-out: CYPs 3A4 (Midazolam) (IC50)
[9] = probe substrate testosterone, read-out: CYPs 3A4 (Testosterone) (IC50)
[10] = plasma, po, 30 mg/kg, PO-30mpk, read-out: Tmax
[11] = plasma, iv, 0.5 mg/kg, IV-0.5mpk

| SMILES | IC50 ([1]; Homo sapiens, 22Rv1, 168 h) | IC50 [2] | IC50 [3] | IC50 [4, 8] | IC50 [4, 9] | IC50 [5] | AUC(0-inf) ([6]; plasma, po, 30 mg/kg, PO-30mpk) | Cmax ([6]; plasma, po, 30 mg/kg, PO-30mpk) | half-life ([6]; plasma, po, 30 mg/kg, PO-30mpk) | Tmax [6, 10] | IC50 ([7]; Homo sapiens, LNCaP, 168 h) | also measured |
| --- | --- | --- | --- | --- | --- | --- | --- | --- | --- | --- | --- | --- |
| CC(C)(c1ccc(-c2ccc(OC3CCN(c4ccnc(N=S5(=O)CCCC5)n4)CC3)cc2)cc1)c1cc(Cl)c(OCCCl)c(C#N)c1 [Compound 65] | 1.18 µM | > 10 µM | > 10 µM | > 10 µM | > 10 µM | 4.3 µM | – | – | – | – | – | – |
| CC(C)(c1ccc(-c2ccc(OCc3ccnc(N=S4(=O)CCCC4)n3)cc2)cc1)c1cc(Cl)c(OCCCl)c(C#N)c1 [Compound 7] | 0.46 µM | – | 7.3 µM | > 10 µM | > 10 µM | > 10 µM | 161 µg·h/mL | 12300 ng/mL | 5 h | 3.3 h | – | – |
| CC(C)(c1ccc(-c2ccc(OCc3ccnc(N4CC(S(C)(=O)=O)C4)n3)cc2)cc1)c1cc(Cl)c(OCCCl)c(C#N)c1 [Compound 53] | 0.28 µM | > 10 µM | > 10 µM | > 10 µM | > 10 µM | > 10 µM | 421 µg·h/mL | 13200 ng/mL | 28.1 h | 4 h | – | C0 ([6]; plasma, 0.5 mg/kg, IV-0.5mpk): 2100 ng/mL; clearance ([6]; plasma, 0.5 mg/kg, IV-0.5mpk): 0.59 mL/min/kg; bioavailability ([6]; plasma, 30 mg/kg, PO-30mpk vs IV-0.5mpk): 68.4%; AUC(0-inf) [6, 11]: 10.2 µg·h/mL; half-life [6, 11]: 33.6 h |
| CC(C)(c1ccc(-c2ccc(OCc3ccnc(N4CC5(CCS(=O)(=O)CC5)C4)n3)cc2)cc1)c1cc(Cl)c(OCCCl)c(C#N)c1 [Compound 177] | 0.21 µM | > 10 µM | > 10 µM | > 10 µM | > 10 µM | > 10 µM | 558 µg·h/mL | 17800 ng/mL | 33.7 h | 6 h | – | – |
| CC(C)(c1ccc(-c2cnc(OCc3ccnc(N4CC(S(=N)(=O)C5CC5)C4)n3)cn2)cc1)c1cc(Cl)c(OCCCl)c(C#N)c1 (single isomer, unassigned) [Compound 350A] | – | > 10 µM | – | > 10 µM | > 10 µM | > 10 µM | – | – | – | – | 0.055 µM | – |
| CC(C)(c1ccc(-c2ccc(OCC3CC(CN4CC(S(C)(=O)=O)C4)C3)cc2)cc1)c1cc(Cl)c(OCCCl)c(C#N)c1 (stereo not shown) [Compound 302] | 1.41 µM | > 10 µM | > 10 µM | > 10 µM | > 10 µM | > 10 µM | – | – | – | – | – | – |
| CC(C)(c1ccc(-c2cnc(OCc3ccnc(N=S4(=O)CCOCC4)n3)cn2)cc1)c1cc(Cl)c(OCCCl)c(C#N)c1 [Compound 206] | 0.41 µM | – | – | – | – | – | 236 µg·h/mL | 32100 ng/mL | 1.7 h | 2 h | 0.98 µM | – |
| Cc1cc(OCc2ccnc(P(C)(C)=O)n2)ccc1-c1ccc(C(C)(C)c2cc(Cl)c(OCCCl)c(C#N)c2)cc1 [Compound 119] | 0.74 µM | – | – | – | – | – | 333 µg·h/mL | 17400 ng/mL | 11.8 h | 4.7 h | 0.94 µM | – |
| CC(C)(c1ccc(-c2cnc(OCc3ccnc(N4CC(S(N)(=O)=O)C4)n3)cn2)cc1)c1cc(Cl)c(OCCCl)c(C#N)c1 [Compound 378] | 0.17 µM | > 10 µM | – | > 10 µM | > 10 µM | > 10 µM | – | – | – | – | 0.061 µM | – |
| CC(C)(c1ccc(-c2ccc(OCc3ccnc(N4CC5(CCS5(=O)=O)C4)n3)cc2)cc1)c1cc(Cl)c(OCCCl)c(C#N)c1 [Compound 176] | 0.39 µM | > 10 µM | > 10 µM | > 10 µM | > 10 µM | > 10 µM | 407 µg·h/mL | 21300 ng/mL | 19.6 h | 4 h | – | – |
| CC(C)(c1ccc(-c2ccc(OCc3ccnc(N=S4(=O)CCCC4)n3)cc2)cc1)c1cnc2c(cnn2CCCl)c1 [Compound 46] | 0.59 µM | > 10 µM | 6.7 µM | 4.5 µM | > 10 µM | > 10 µM | 220 µg·h/mL | 20700 ng/mL | 3.58 h | 4 h | – | – |
| CC(C)(c1ccc(-c2ccc(OCc3ccnc(N4CC5(CC(P(C)(C)=O)C5)C4)n3)cc2)cc1)c1cc(Cl)c(OCCCl)c(C#N)c1 [Compound 61] | 0.38 µM | > 10 µM | > 10 µM | > 10 µM | > 10 µM | > 10 µM | 242 µg·h/mL | 15600 ng/mL | 7.6 h | 6 h | – | – |
| CC(C)(c1ccc(-c2cnc(OCc3ccnc(N4CC5(CCS5(=N)=O)C4)n3)cn2)cc1)c1cc(Cl)c(OCCCl)c(C#N)c1 (single isomer, unassigned) [Compound 375B] | – | > 10 µM | – | > 10 µM | > 10 µM | > 10 µM | – | – | – | – | 0.1 µM | IC50 [1]: 0.12 µM; AUCi ([6]; PO-30mpk, 30 mg/kg): 2620.877 µg·h/mL; Cmax (PO) ([6]; PO-30mpk, 30 mg/kg): 153425 ng/mL; T1/2 ([6]; PO-30mpk, 30 mg/kg): 8.67 h; Tmax ([6]; PO-30mpk, 30 mg/kg): 4.0 h |
| CC(C)(c1ccc(-c2ccc(OCc3ccnc(N=S4(=O)CCOCC4)n3)cn2)cc1)c1cc(Cl)c(OCCCl)c(C#N)c1 [Compound 62] | 0.26 µM | – | – | – | – | – | 188 µg·h/mL | 19900 ng/mL | 2 h | 2 h | 0.83 µM | – |
| CC(C)(c1ccc(-c2ccc(/C=C/c3cnc(P(C)(C)=O)nc3)cc2)cc1)c1cc(Cl)c(OCCCl)c(C#N)c1 [Compound 234] | 0.35 µM | – | – | – | – | – | 307 µg·h/mL | 13400 ng/mL | 11 h | 7 h | 0.58 µM | – |
| CC(C)(c1ccc(-c2cnc(OCc3ccnc(N4CC5(CCS5(=N)=O)C4)n3)cn2)cc1)c1cc(Cl)c(OCCCl)c(C#N)c1 (single isomer, unassigned) [Compound 375A] | 0.089 µM | > 10 µM | – | > 10 µM | > 10 µM | > 10 µM | – | 109000 ng/mL | 6.82 h | 3.3 h | – | AUCi ([6]; PO-30mpk, 30 mg/kg): 1307.079 µg·h/mL; IC50 [7]: 0.058 µM |
| CC(C)(c1ccc(-c2cnc(COc3ccnc(P(C)(C)=O)n3)nc2)cc1)c1cc(Cl)c(OCCCl)c(C#N)c1 [Compound 385] | – | – | – | – | – | – | – | – | – | – | – | IC50 ([1]; Homo sapiens, 168 h): 0.57 µM; IC50 ([7]; Homo sapiens, 168 h): 0.22 µM |
| CC(C)(c1cc(Cl)c(OCCCl)c(C#N)c1)c1ccc(-c2ccc(OCc3ccnc(N4CC(S(C)(=N)=O)C4)n3)cc2)cn1 (stereo not shown) [Compound 477] | – | – | – | – | – | – | – | – | – | – | – | IC50 ([1]; Homo sapiens, 168 h): 0.69 µM; IC50 ([7]; Homo sapiens, 168 h): 0.24 µM |
| CC(C)(c1ccc(-c2ccc(OCc3ccnc(N=S4(=O)CCN(CC(F)F)CC4)n3)cn2)cc1)c1cc(Cl)c(OCCCl)c(C#N)c1 [Compound 179] | – | – | – | – | – | – | – | – | – | – | – | IC50 ([1]; Homo sapiens, 168 h): 0.41 µM; IC50 ([7]; Homo sapiens, 168 h): 0.53 µM |
| CC(C)(c1ccc(-c2ccc(OCc3ccnc(N4CC(N=S(C)(C)=O)C4)n3)cc2)cc1)c1cc(Cl)c(OCCCl)c(C#N)c1 [Compound 195] | – | – | – | – | – | – | – | – | – | – | – | IC50 ([1]; Homo sapiens, 168 h): 0.038 µM; IC50 ([7]; Homo sapiens, 168 h): 0.46 µM |
